The values below come from PubChem BioAssay AID2060502 (Molecular Pharmacology Branch, DTP, NCI, 2025).

Several values for one entry are separate records, joined by “and”; a condition that tells them apart may be missing. Equal entries are not always repeated. Bounds are passed on as bounds.

For this experiment, the system named is 885724-159-R-J1-PDC complex spheroid viability. Put plainly: Anticancer human tumor 885724-159-R-J1-PDC patient-derived pancreatic adenocarcinoma cell line growth inhibition [GQUAD]. Particulars: for viability, T/C: stronger effect = lower value. From the text:
DNA G-quadruplex Stabilizer Agents in Combinations in Complex Spheroids
A high-throughput screen of multi-cell type tumor spheroids was designed to identify active combinations of DNA G-quadruplex stabilizer agents and targeted small molecules. Complex spheroids include a stromal component modeled by human endothelial cells (HUVEC) and fibroblasts modeled by human mesenchymal stem cells (MSCs). The concentration ranges selected for each drug and investigational agent were based upon clinically achievable concentrations if the clinical Cmax of the agent was known.
Compounds. The drugs and investigational agents: pidnarulex (CX-5461; NSC782164), APTO-253 (NSC789042), BRACO-19 (NSC847499), peposertib (NSC802822), ceralasertib (NSC780249), elimusertib (NSC800525), camonsertib (NSC841442), AZD-1390 (NSC803789), olaparib (NSC753686), talazoparib (NSC767125), ART-558 (NSC835418), sotorasib (NSC818433), MRTX-1133 (NSC836407), SN-38 (NSC673596), topotecan (NSC609699), etoposide (NSC141540), doxorubicin (NSC123127), gemcitabine (NSC613327), 5-fluorouracil (NSC19893), paclitaxel (NSC125973), vemurafenib (NSC761431), panobinostat (NSC761190), R-306465 (JNJ-16241199; NSC773264), adavosertib (NSC754352), TP-3654 (NSC805149), carboplatin (NSC241240), KSQ-4279 (NSC840948), and staurosporine (NSC755774) were obtained from the National Cancer Institute (NCI) Developmental Therapeutics Program Chemical Repository (34). The FDA-approved anticancer drug set is available from the NCI Developmental Therapeutics Program. […] The stock solutions were prepared in dimethyl sulfoxide (DMSO, Sigma-Aldrich, St. Louis, MO, cat. D2650) at 800-fold the tested concentration and stored at -70 degrees C prior to their use. All drugs and investigational agents were tested over a range starting from a high concentration at or near the clinical Cmax and decreasing in half-log increments. If the clinical Cmax for an agent had not been determined, the highest concentration tested was 10 microM.
2.3 Cell Culture. All cells were maintained in an incubator at 37 degrees C and 5% CO2 with 95% humidity. The PDC lines were cultured according to standard operating procedures established by the NCI PDMR. All PDCs were thawed and cultured in Matrigel-coated flasks prepared with a working solution of 1X Ham's F-12 nutrient mix, without supplementation (Invitrogen, cat. 11765054), 100 U/mL penicillin-streptomycin (Invitrogen, cat. 15140122), and 2.5% Matrigel (Corning Inc., cat. 354248) for the first three passages. The 857933-349-R-J2-PDC line was cultured in 6C/Colon 1B media, which includes advanced DMEM/F-12 (Thermo Fisher Scientific, cat. 12634028), 10 mM HEPES (Thermo Fisher Scientific, cat. 15630080), 1X GlutaMAX supplement (Thermo Fisher Scientific, cat. 35050061), 0.1 mg/mL primocin (InvivoGen, cat. ant-pm-2), 10% defined fetal bovine serum, heat inactivated (HyClone Laboratories Inc., cat. SH30070.03HI), 50% L-WRN conditioned media (ATCC, cat. CRL-3276), 1.25 mM N-Acetyl-L-cysteine (Sigma-Aldrich, cat. A9165), 10 mM nicotinamide (Sigma-Aldrich, cat. N0636), 1X B-27 supplement (Thermo Fisher Scientific, cat. 17504044), 1X N-2 supplement (Thermo Fisher Scientific, cat. 17502048), 10 microM Y-27632 dihydrochloride (Tocris Bioscience, cat. 1254), and 50 ng/mL human EGF recombinant protein (Thermo Fisher Scientific, cat. PHG0311). The 485176-168-R4-J1-PDC line was cultured in Panc media, which includes all 6C/Colon 1B media components plus 100 ng/mL human FGF-10 (Thermo Fisher Scientific, cat. 100-26), 500 nM SB-431542 (Selleckchem, cat. S1067), and gastrin (Tocris, cat. 3006).
[…]
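Further: spheroids exposed to agents for seven days before readout.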
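Wherever viability, T/C is given: percent of vehicle control viability where 100% = DMSO wells.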

For the compound `O=c1[nH]cc(F)c(=O)[nH]1`, the viability, T/C – broadly, the ratio of treated to control – is 96.3% and 85.1% and 106% (compound 0.0316 µM); 100% and 95.1% and 93.2% (compound 0.1 µM); 96.9% and 89% and 95.5% (compound 0.316 µM); 91.2% and 94% and 92.8% (compound 1 µM); 94.3% and 94.6% and 93.9% (compound 3.16 µM); 88.3% and 87.7% and 92% (compound 10 µM). The concentration for half-maximal inhibition (IC50) (as a rule, the concentration needed to halve the response being measured) (curve of compound) is above 10 µM.

Regarding `CC(C)(O)C1CCC(Nc2ccc3ncc(-c4cccc(C(F)(F)F)c4)n3n2)CC1` (stereo not drawn), the viability, T/C was 110% and 93.1% and 96.4% (compound 0.0316 µM); 95% and 90.9% and 102% (compound 0.1 µM); 85.7% and 91.3% and 93.8% (compound 0.316 µM); 75.3% and 74.9% and 73.6% (compound 1 µM); 45.3% and 41.7% and 38.7% (compound 3.16 µM); 46% and 47.1% and 39.8% (compound 10 µM). In addition, under “curve of compound”, the IC50 is 4.44 µM and 2.56 µM and 2.25 µM.

`CC1COCCN1c1cc(-c2ccnn2C)c2ccnc(-c3ccn[nH]3)c2n1` (stereo not drawn) + Cc1[nH]c2ccc(F)cc2c1-c1nc2c3cccnc3c3ncccc3c2[nH]1: the half-inhibitory concentration (IC50) (curve of first compound, second compound 0.0316 µM) was above 10 µM; the IC50 (curve of first compound, second compound 0.1 µM) was above 10 µM; the IC50 (curve of first compound, second compound 0.316 µM) was found to be 8.46 µM; the IC50 (curve of first compound, second compound 1 µM) turned out to be 2.85 µM; the IC50 (curve of first compound, second compound 3.16 µM) was determined as 0.0524 µM; the IC50 (curve of first compound, second compound 10 µM) is 4.98 µM. Moreover, the viability, T/C reads like this: (second compound 0.0316 µM, first compound 0.0316 µM) 104%; (second compound 0.0316 µM, first compound 0.1 µM) 87.3%; (second compound 0.0316 µM, first compound 0.316 µM) 87.2%; (second compound 0.0316 µM, first compound 1 µM) 76.9%; (second compound 0.0316 µM, first compound 3.16 µM) 53.3%; (second compound 0.0316 µM, first compound 10 µM) 53.8%. The viability, T/C by setting is: (second compound 0.1 µM, first compound 0.0316 µM) 99.7%; (second compound 0.1 µM, first compound 0.1 µM) 104%; (second compound 0.1 µM, first compound 0.316 µM) 89.8%; (second compound 0.1 µM, first compound 1 µM) 73.5%; (second compound 0.1 µM, first compound 3.16 µM) 62.5%; (second compound 0.1 µM, first compound 10 µM) 51.8%. The viability, T/C (second compound 0.316 µM, first compound 0.0316 µM) was 98.7%; the viability, T/C (second compound 0.316 µM, first compound 0.1 µM) was 84.7%; the viability, T/C (second compound 0.316 µM, first compound 0.316 µM) was 68.7%; the viability, T/C (second compound 0.316 µM, first compound 1 µM) is 61.1%; the viability, T/C (second compound 0.316 µM, first compound 3.16 µM) is 56.6%; the viability, T/C (second compound 0.316 µM, first compound 10 µM) is 48%. Moreover, the viability, T/C reads like this: (second compound 1 µM, first compound 0.0316 µM) 80.4%; (second compound 1 µM, first compound 0.1 µM) 68.9%; (second compound 1 µM, first compound 0.316 µM) 63.8%; (second compound 1 µM, first compound 1 µM) 54.5%; (second compound 1 µM, first compound 3.16 µM) 51%; (second compound 1 µM, first compound 10 µM) 43.5%. In addition, the viability, T/C was 54.8% (second compound 3.16 µM, first compound 0.0316 µM); 39.6% (second compound 3.16 µM, first compound 0.1 µM); 47.9% (second compound 3.16 µM, first compound 0.316 µM); 28.2% (second compound 3.16 µM, first compound 1 µM); 24.8% (second compound 3.16 µM, first compound 3.16 µM); 30.6% (second compound 3.16 µM, first compound 10 µM). In addition, the viability, T/C is, setting by setting: (second compound 10 µM, first compound 0.0316 µM) 66.3%; (second compound 10 µM, first compound 0.1 µM) 66%; (second compound 10 µM, first compound 0.316 µM) 62.9%; (second compound 10 µM, first compound 1 µM) 52.9%; (second compound 10 µM, first compound 3.16 µM) 51.8%; (second compound 10 µM, first compound 10 µM) 47.9%.

As for `COc1ccc([C@@H](O)c2cc(-c3ncnc4cc(N5CCOCC5)ccc34)c(F)cc2Cl)nn1`, the viability, T/C is, setting by setting: (compound 0.0316 µM) 97.9% and 93.6% and 102%; (compound 0.1 µM) 99.9% and 83.8% and 90.8%; (compound 0.316 µM) 85.5% and 98.2% and 81.1%; (compound 1 µM) 87.8% and 74.6% and 83.2%; (compound 3.16 µM) 64.8% and 59.1% and 64.2%; (compound 10 µM) 39.9% and 41.8% and 37.1%. The IC50 (curve of compound) is 6.4 µM and 5.56 µM and 5.78 µM.

`Cc1cnc(CNC(=O)c2c(=O)c3ccc(N4CCCN(C)CC4)nc3n3c2sc2ccccc23)cn1`: the viability, T/C by setting is: (compound 0.316 µM) 98.5% [middle of 12 runs]; (compound 1 µM) 87.6% [middle of 11 runs]; (compound 3.16 µM) 80.1% [middle of 12 runs]; (compound 10 µM) 77.7% [middle of 12 runs]. For the same compound, the IC50 (compound alone, run of 02/20/2024) was above 10 µM.
